What was measured:
Type in all cases: in vivo
[1] = system: lean mice; test: Diet induced obesity model, treatment arm TA2 (lean mice, regular chow diet); settings: 100 mg/kg ip bid Day 1-28, mean ± SEM
Description: (§1) In a diet induced obesity (DIO) model in mice, two treatment arms of mice were tested. In the first treatment arm (TA1), DIO mice in four treatment groups (treated: 25 mg/kg, 50 mg/kg and 100 mg/kg and non-treated vehicle control) were fed a high fat diet. In the second treatment arm (TA2), lean mice in two treatment groups (treated: 100 mg/kg and non-treated vehicle control) were fed a regular chow diet. After 7 days acclimation to the diet, the treated groups in each arm were dosed (0.1 mL, ip, bid) with a test compound from Day 1 to Day 28 of the study. After 7 days acclimation to the diet, the non-treated groups in each arm were dosed (0.1 mL, ip, bid) with vehicle from Day 1 to Day 28 of the study. Body weight was monitored twice per week and on Day 28. After sacrifice, blood glucose, body weight, body mass, serum MCP-1 and insulin levels were also recorded. MCP-1 was measured by ELISA. The statistical analysis for p value was performed using the program Prism (Graphpad, Monrovia, Calif.) with the Student t-test (unpaired). All data are presented as the mean ± standard error of the mean (SEM).

[2] = system: NON (NONcNZO10/LtJ) mice; test: Insulin sensitivity model: insulin tolerance test; settings: for Blood Glucose: mean ± SEM
Description: (§2) In an insulin sensitivity model in mice, four month old male NON (NONcNZO10/LtJ) mice in four treatment groups (treated: 25 mg/kg, 50 mg/kg and 100 mg/kg and non-treated vehicle control) were fed LabDiet® 5K20 for 28 days. The treated groups were dosed (0.1 mL, ip, bid) with a test compound from Day 1 to Day 28. The non-treated group was dosed (0.1 mL, ip, q.d.) with vehicle from Day 1 to Day 28. Body weight and blood glucose were monitored once per week and an insulin tolerance test was performed by i.p. injection of […] insulin, then fed blood glucose levels were measured at 0, 15, 30, 60, 90, and 120 min after insulin administration. The insulin tolerance test blood glucose levels at the time points the sample were taken after insulin administration are shown in Table 5. Blood glucose levels were measured using a Glucometer. MCP-1 and insulin were measured by ELISA. Plasma glucose and FFA were measured using Weko kits. The statistical analysis for p value was performed using the program Prism (Graphpad, Monrovia, Calif.) with the Student t-test (unpaired). All data are presented as the mean ± standard error of the mean (SEM).

[3] = system: NON (NONcNZO10/LtJ) mice; test: Insulin sensitivity model: Day 28 blood samples and body weight; settings: for Blood HbA1c / Body Weight / Plasma FFA / Plasma Glucose / Plasma Insulin / Plasma MCP-1: mean ± SEM
Description: as §2, with “5. After sacrifice on Day 28, blood samples were collected to measure HbA1c, plasma levels of glucose, plasma insulin, FFA (free fatty acids) and MCP-1.” for “5.”

[4] = system: DIO mice; test: Diet induced obesity (DIO) model, treatment arm TA1 (high fat diet); settings: for Body Weight Gain / Change in Fat Mass / Change in Lean Mass / Change in Water / Food Intake / Plasma MCP-1: TA1 DIO mice, high fat diet, mean ± SEM
Description: as §1

O=C(O)[C@H](C1CCN(C(=O)/C=C/c2cc(F)c(F)c(F)c2)CC1)N1CCC(c2c[nH]c3ccccc23)CC1 [(S)-{[4-(1H-indol-3-yl)-piperidin-1-yl]}-{1-[(2E)-3-(3,4,5-trifluoro-phenyl)-acryloyl]-piperidin-4-yl}-acetic acid]
Body Weight Gain [1]: 2.3 ± 1.5 g
Change in Fat Mass [1]: 0.6 ± 0.3 g
Change in Lean Mass [1]: 3.4 ± 0.8 g
Change in Water [1]: 3.1 ± 0.7 g
Food Intake [1]: 22.8 ± 1.7 g/7 days
Plasma MCP-1 [1]: 646.8 ± 112.5 pg/mL
Blood Glucose ([2]; Day 7, 25 mg/kg ip bid, 0 min after insulin): 333 ± 44 mg/dL
Blood Glucose ([2]; Day 7, 25 mg/kg ip bid, 15 min after insulin): 213 ± 40 mg/dL
Blood Glucose ([2]; Day 7, 25 mg/kg ip bid, 30 min after insulin): 157 ± 27 mg/dL
Blood Glucose ([2]; Day 7, 25 mg/kg ip bid, 60 min after insulin): 146 ± 21 mg/dL
Blood Glucose ([2]; Day 7, 25 mg/kg ip bid, 90 min after insulin): 146 ± 18 mg/dL
Blood Glucose ([2]; Day 7, 25 mg/kg ip bid, 120 min after insulin): 164 ± 23 mg/dL
Blood Glucose ([2]; Day 7, 50 mg/kg ip bid, 0 min after insulin): 325 ± 54 mg/dL
Blood Glucose ([2]; Day 7, 50 mg/kg ip bid, 15 min after insulin): 213 ± 51 mg/dL
Blood Glucose ([2]; Day 7, 50 mg/kg ip bid, 30 min after insulin): 136 ± 20 mg/dL
Blood Glucose ([2]; Day 7, 50 mg/kg ip bid, 60 min after insulin): 115 ± 13 mg/dL
Blood Glucose ([2]; Day 7, 50 mg/kg ip bid, 90 min after insulin): 115 ± 8 mg/dL
Blood Glucose ([2]; Day 7, 50 mg/kg ip bid, 120 min after insulin): 142 ± 8 mg/dL
Blood Glucose ([2]; Day 7, 100 mg/kg ip bid, 0 min after insulin): 230 ± 22 mg/dL
Blood Glucose ([2]; Day 7, 100 mg/kg ip bid, 15 min after insulin): 141 ± 16 mg/dL
Blood Glucose ([2]; Day 7, 100 mg/kg ip bid, 30 min after insulin): 105 ± 9 mg/dL
Blood Glucose ([2]; Day 7, 100 mg/kg ip bid, 60 min after insulin): 82 ± 8 mg/dL
Blood Glucose ([2]; Day 7, 100 mg/kg ip bid, 90 min after insulin): 83 ± 7 mg/dL
Blood Glucose ([2]; Day 7, 100 mg/kg ip bid, 120 min after insulin): 98 ± 8 mg/dL
Blood Glucose ([2]; Day 21, 25 mg/kg ip bid, 0 min after insulin): 465 ± 34 mg/dL
Blood Glucose ([2]; Day 21, 25 mg/kg ip bid, 15 min after insulin): 367 ± 51 mg/dL
Blood Glucose ([2]; Day 21, 25 mg/kg ip bid, 30 min after insulin): 247 ± 53 mg/dL
Blood Glucose ([2]; Day 21, 25 mg/kg ip bid, 60 min after insulin): 209 ± 56 mg/dL
Blood Glucose ([2]; Day 21, 25 mg/kg ip bid, 90 min after insulin): 198 ± 51 mg/dL
Blood Glucose ([2]; Day 21, 25 mg/kg ip bid, 120 min after insulin): 237 ± 43 mg/dL
Blood Glucose ([2]; Day 21, 50 mg/kg ip bid, 0 min after insulin): 434 ± 71 mg/dL
Blood Glucose ([2]; Day 21, 50 mg/kg ip bid, 15 min after insulin): 303 ± 56 mg/dL
Blood Glucose ([2]; Day 21, 50 mg/kg ip bid, 30 min after insulin): 186 ± 32 mg/dL
Blood Glucose ([2]; Day 21, 50 mg/kg ip bid, 60 min after insulin): 162 ± 37 mg/dL
Blood Glucose ([2]; Day 21, 50 mg/kg ip bid, 90 min after insulin): 168 ± 47 mg/dL
Blood Glucose ([2]; Day 21, 50 mg/kg ip bid, 120 min after insulin): 214 ± 49 mg/dL
Blood Glucose ([2]; Day 21, 100 mg/kg ip bid, 0 min after insulin): 332 ± 38 mg/dL
Blood Glucose ([2]; Day 21, 100 mg/kg ip bid, 15 min after insulin): 247 ± 28 mg/dL
Blood Glucose ([2]; Day 21, 100 mg/kg ip bid, 30 min after insulin): 152 ± 15 mg/dL
Blood Glucose ([2]; Day 21, 100 mg/kg ip bid, 60 min after insulin): 144 ± 21 mg/dL
Blood Glucose ([2]; Day 21, 100 mg/kg ip bid, 90 min after insulin): 158 ± 28 mg/dL
Blood Glucose ([2]; Day 21, 100 mg/kg ip bid, 120 min after insulin): 228 ± 43 mg/dL
blood glucose control ([2]; NON mice): improved
insulin sensitivity ([2]; NON mice): increased
Blood HbA1c ([3]; Day 28, 25 mg/kg ip bid): 6.6 ± 0.5%
Body Weight ([3]; Day 28, 25 mg/kg ip bid): 45.2 ± 1.4 g
Plasma FFA ([3]; Day 28, 25 mg/kg ip bid): 1.2 ± 0.4 mM
Plasma Glucose ([3]; Day 28, 25 mg/kg ip bid): 413 ± 52 mg/dL
Plasma Insulin ([3]; Day 28, 25 mg/kg ip bid): 5.8 ± 0.7 ng/mL
Plasma MCP-1 ([3]; Day 28, 25 mg/kg ip bid): 56.6 ± 3.0 pg/mL
Blood HbA1c ([3]; Day 28, 50 mg/kg ip bid): 6.7 ± 0.7%
Body Weight ([3]; Day 28, 50 mg/kg ip bid): 42.6 ± 0.8 g
Plasma FFA ([3]; Day 28, 50 mg/kg ip bid): 1.0 ± 0.2 mM
Plasma Glucose ([3]; Day 28, 50 mg/kg ip bid): 358 ± 58 mg/dL
Plasma Insulin ([3]; Day 28, 50 mg/kg ip bid): 5.4 ± 0.9 ng/mL
Plasma MCP-1 ([3]; Day 28, 50 mg/kg ip bid): 177.4 ± 63.4 pg/mL
Blood HbA1c ([3]; Day 28, 100 mg/kg ip bid): 5.0 ± 0.2 %
Body Weight ([3]; Day 28, 100 mg/kg ip bid): 43.6 ± 0.9 g
Plasma FFA ([3]; Day 28, 100 mg/kg ip bid): 0.6 ± 0.1 mM
Plasma Glucose ([3]; Day 28, 100 mg/kg ip bid): 190 ± 15 mg/dL
Plasma Insulin ([3]; Day 28, 100 mg/kg ip bid): 7.9 ± 1.1 ng/mL
Plasma MCP-1 ([3]; Day 28, 100 mg/kg ip bid): 555.6 ± 104.5 pg/mL
HbA1c levels ([3]; NON mice): significantly reduced
body weight between treated and non-treated groups ([3]; NON mice): without a significant difference
body fat mass gain ([4]; DIO model in mice): significantly reduced
lean mass ([4]; DIO model in mice): no change
weight gain ([4]; DIO model in mice): significantly reduced
Body Weight Gain ([4]; 25 mg/kg ip bid Day 1-28): 3.8 ± 1.2 g
Change in Fat Mass ([4]; 25 mg/kg ip bid Day 1-28): 0.9 ± 0.7 g
Change in Lean Mass ([4]; 25 mg/kg ip bid Day 1-28): 3.1 ± 0.9 g
Change in Water ([4]; 25 mg/kg ip bid Day 1-28): 2.8 ± 0.8 g
Food Intake ([4]; 25 mg/kg ip bid Day 1-28): 14.0 ± 1.6 g/7 days
Plasma MCP-1 ([4]; 25 mg/kg ip bid Day 1-28): 69.2 ± 5.6 pg/mL
Body Weight Gain ([4]; 50 mg/kg ip bid Day 1-28): 3.4 ± 1.1 g
Change in Fat Mass ([4]; 50 mg/kg ip bid Day 1-28): 0.4 ± 0.6 g
Change in Lean Mass ([4]; 50 mg/kg ip bid Day 1-28): 4.9 ± 0.9 g
Change in Water ([4]; 50 mg/kg ip bid Day 1-28): 4.5 ± 0.8 g
Food Intake ([4]; 50 mg/kg ip bid Day 1-28): 13.5 ± 1.8 g/7 days
Plasma MCP-1 ([4]; 50 mg/kg ip bid Day 1-28): 98.3 ± 7.6 pg/mL
Body Weight Gain ([4]; 100 mg/kg ip bid Day 1-28): 2.3 ± 1.8 g
Change in Fat Mass ([4]; 100 mg/kg ip bid Day 1-28): 0.2 ± 0.3 g
Change in Lean Mass ([4]; 100 mg/kg ip bid Day 1-28): 3.4 ± 0.3 g
Change in Water ([4]; 100 mg/kg ip bid Day 1-28): 2.9 ± 0.3 g
Food Intake ([4]; 100 mg/kg ip bid Day 1-28): 14.5 ± 3.6 g/7 days
Plasma MCP-1 ([4]; 100 mg/kg ip bid Day 1-28): 503.5 ± 69.7 pg/mL

Source: patent US20070219245A1, “METHOD OF USE FOR SUBSTITUTED DIPIPERIDINE CCR2 ANTAGONISTS” (priority 2006, published 2007)
